How the values were obtained:
CSF-1R (FMS) = CSF-1R (FMS) (Homo sapiens (Human), UniProt P07333); test: SelectScreen Z'-LYTE kinase assay, Assay 336 for CSF-1R (FMS); format: biochemical; conditions: Z'-LYTE activity assay, 500 μM ATP (Km app); read-out: CSF-1R Enzyme IC50
KDR (VEGFR2) = KDR (VEGFR2) (Homo sapiens (Human), UniProt P35968); test: SelectScreen Z'-LYTE kinase assay, Assay 540 for KDR (VEGFR2); format: biochemical; conditions: Z'-LYTE activity assay, 75 μM ATP (Km app); read-out: VEGFR2 Enzyme IC50
[1] = test system: CD11b and CD24 positive cells; test: In vivo efficacy study: flow cytometry of blood leukocytes from mice bearing NZM12 human melanoma xenografts; set-up: species or system NIH-III female mice; conditions: dosed daily for 14 days

Chain of KDR (VEGFR2) (P35968 20-1356): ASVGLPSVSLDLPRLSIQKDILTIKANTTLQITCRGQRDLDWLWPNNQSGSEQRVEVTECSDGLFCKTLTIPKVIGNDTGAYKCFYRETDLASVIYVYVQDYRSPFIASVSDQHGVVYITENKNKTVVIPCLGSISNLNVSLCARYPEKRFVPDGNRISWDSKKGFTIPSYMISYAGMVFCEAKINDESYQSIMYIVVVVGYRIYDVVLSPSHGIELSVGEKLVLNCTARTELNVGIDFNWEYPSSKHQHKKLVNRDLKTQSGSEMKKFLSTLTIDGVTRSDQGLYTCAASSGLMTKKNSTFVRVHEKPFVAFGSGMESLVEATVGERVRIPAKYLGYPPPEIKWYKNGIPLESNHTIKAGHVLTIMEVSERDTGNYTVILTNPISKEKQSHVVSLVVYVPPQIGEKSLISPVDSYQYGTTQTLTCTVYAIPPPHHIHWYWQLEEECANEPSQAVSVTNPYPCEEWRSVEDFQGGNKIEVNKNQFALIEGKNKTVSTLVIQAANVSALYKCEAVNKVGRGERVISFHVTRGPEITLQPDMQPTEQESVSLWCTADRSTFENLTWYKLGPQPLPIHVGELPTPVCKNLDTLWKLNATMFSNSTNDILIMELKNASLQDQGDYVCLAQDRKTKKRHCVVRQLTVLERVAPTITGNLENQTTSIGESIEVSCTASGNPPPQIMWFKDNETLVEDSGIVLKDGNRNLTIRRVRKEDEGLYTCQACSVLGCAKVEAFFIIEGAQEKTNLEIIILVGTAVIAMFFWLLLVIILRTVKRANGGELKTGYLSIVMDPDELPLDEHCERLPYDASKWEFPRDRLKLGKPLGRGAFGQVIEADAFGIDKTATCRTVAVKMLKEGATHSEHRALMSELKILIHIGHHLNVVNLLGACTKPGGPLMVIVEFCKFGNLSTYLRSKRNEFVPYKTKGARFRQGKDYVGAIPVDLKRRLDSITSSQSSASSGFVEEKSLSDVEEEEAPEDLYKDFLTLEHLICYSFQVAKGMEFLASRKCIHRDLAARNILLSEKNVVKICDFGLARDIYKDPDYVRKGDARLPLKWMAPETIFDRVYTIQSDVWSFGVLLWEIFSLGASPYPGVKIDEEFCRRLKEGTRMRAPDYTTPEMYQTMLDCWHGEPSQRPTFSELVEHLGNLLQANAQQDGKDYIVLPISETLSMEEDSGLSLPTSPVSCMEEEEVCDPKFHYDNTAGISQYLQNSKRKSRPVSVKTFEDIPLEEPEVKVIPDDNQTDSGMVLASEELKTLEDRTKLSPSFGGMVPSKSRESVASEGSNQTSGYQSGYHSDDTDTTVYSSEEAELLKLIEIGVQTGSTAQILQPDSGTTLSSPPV
Chain of CSF-1R (FMS) (P07333 20-972): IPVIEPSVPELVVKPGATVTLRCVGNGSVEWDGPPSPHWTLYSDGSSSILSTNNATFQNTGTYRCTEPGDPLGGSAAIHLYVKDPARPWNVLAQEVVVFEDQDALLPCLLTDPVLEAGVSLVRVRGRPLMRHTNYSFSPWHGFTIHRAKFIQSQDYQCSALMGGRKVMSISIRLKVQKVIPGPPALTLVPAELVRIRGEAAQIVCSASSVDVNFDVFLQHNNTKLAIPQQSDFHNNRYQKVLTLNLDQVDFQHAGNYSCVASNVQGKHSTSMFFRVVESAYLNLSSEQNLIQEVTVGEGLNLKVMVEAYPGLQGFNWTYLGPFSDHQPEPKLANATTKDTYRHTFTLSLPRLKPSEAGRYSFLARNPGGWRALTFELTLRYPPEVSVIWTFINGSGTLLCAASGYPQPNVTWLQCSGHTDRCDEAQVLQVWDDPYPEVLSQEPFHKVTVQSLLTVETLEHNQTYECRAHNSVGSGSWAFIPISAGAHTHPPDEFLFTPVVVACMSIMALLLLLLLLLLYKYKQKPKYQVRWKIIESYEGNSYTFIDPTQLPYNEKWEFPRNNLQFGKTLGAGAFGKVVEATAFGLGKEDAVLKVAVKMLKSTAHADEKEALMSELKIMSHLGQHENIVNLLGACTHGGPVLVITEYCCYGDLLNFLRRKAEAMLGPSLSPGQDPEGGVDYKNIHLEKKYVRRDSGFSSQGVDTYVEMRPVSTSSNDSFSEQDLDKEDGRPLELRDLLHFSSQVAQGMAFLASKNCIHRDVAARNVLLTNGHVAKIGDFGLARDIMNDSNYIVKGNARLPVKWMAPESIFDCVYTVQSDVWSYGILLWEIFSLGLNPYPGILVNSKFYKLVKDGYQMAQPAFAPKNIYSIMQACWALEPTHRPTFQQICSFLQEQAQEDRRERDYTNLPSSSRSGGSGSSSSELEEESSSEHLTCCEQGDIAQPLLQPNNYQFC

SMILES	IC50 (CSF-1R (FMS)) [µM]	IC50 (KDR (VEGFR2)) [µM]	number of cells of myeloid lineage in the treated mice [1]
CN(C)CCOc1cccc2c(=O)c3ccc(Oc4cccc(C(=O)Nc5ccccc5)c4)cc3oc12 [Example 2, 3-({5-[2-(Dimethylamino)ethoxy]-9-oxo-9H-xanthen-3-yl}oxy)-N-phenylbenzamide]	< 0.1	1 to 10	
COc1ccc(Cc2ccc3c(=O)c4cc(C)cc(OCCN(C)C)c4oc3c2)cn1 [Example 19, 4-(2-(Dimethylamino)ethoxy)-6-((6-methoxypyridin-3-yl)methyl)-2-methyl-9H-xanthen-9-one]	0.1 to 1	> 10	
Cc1cc(OCCN(C)C)c2oc3cc(Oc4ccc(NCC(=O)NC5CCCC5)nc4)ccc3c(=O)c2c1 [Example 25, N-Cyclopentyl-2-((5-((5-(2-(dimethylamino)ethoxy)-7-methyl-9-oxo-9H-xanthen-3-yl)oxy)pyridin-2-yl)amino)acetamide]	< 0.1	> 10	
Cc1cc(OCCCN2CCOCC2)c2oc3cc(Oc4ccccc4)ccc3c(=O)c2c1 [Example 33, 2-Methyl-4-(3-morpholinopropoxy)-6-phenoxy-9H-xanthen-9-one]	0.1 to 1	> 10	
Cc1cc(OCCCCN(C)C)c2oc3cc(Oc4ccccc4)ccc3c(=O)c2c1 [Example 34, 4-(4-(Dimethylamino)butoxy)-2-methyl-6-phenoxy-9H-xanthen-9-one]	0.1 to 1	1 to 10	
Cc1cc(OCCC2CCN(C)CC2)c2oc3cc(Oc4ccccc4)ccc3c(=O)c2c1 [Example 36, 2-Methyl-4-(2-(1-methylpiperidin-4-yl)ethoxy)-6-phenoxy-9H-xanthen-9-one]	0.1 to 1	1 to 10	
Cc1cc(OCCN(C)C)c2oc3cc(Sc4ccc(CCC(=O)NC5CCCC5)nc4)ccc3c(=O)c2c1 [Example 43, N-Cyclopentyl-3-(5-((5-(2-(dimethylamino)ethoxy)-7-methyl-9-oxo-9H-xanthen-3-yl)thio)pyridin-2-yl)propanamide]	< 0.1	1 to 10	
Cc1cc(OCCN(C)C)cc2c(=O)c3ccc(Oc4ccc(CCC(=O)NC5CCCC5)nc4)cc3oc12 [Example 45, N-Cyclopentyl-3-(5-((7-(2-(dimethylamino)ethoxy)-5-methyl-9-oxo-9H-xanthen-3-yl)oxy)pyridin-2-yl)propanamide]	< 0.1	1 to 10	
Cc1cc(OCCN(C)C)c2oc3cc(Oc4cccnc4)ccc3c(=O)c2c1 [Example 53, 4-(2-(Dimethylamino)ethoxy)-2-methyl-6-(pyridin-3-yloxy)-9H-xanthen-9-one]	0.1 to 1	> 10	
Cc1cc(OCCN2CCN(CC(F)(F)F)CC2)c2oc3cc(Oc4ccc(CCC(=O)NC5CCCC5)nc4)ccc3c(=O)c2c1 [Example 59, N-Cyclopentyl-3-(5-((7-methyl-9-oxo-5-(2-(4-(2,2,2-trifluoroethyl)piperazin-1-yl)ethoxy)-9H-xanthen-3-yl)oxy)pyridin-2-yl)propanamide]	< 0.1	> 10	
Cc1cc(OC2CCN(C)C2)c2oc3cc(Oc4ccc(CCC(=O)NC5CCCC5)nc4)ccc3c(=O)c2c1 (stereo not shown) [Example 70, N-Cyclopentyl-3-(5-((7-methyl-5-((1-methylpyrrolidin-3-yl)oxy)-9-oxo-9H-xanthen-3-yl)oxy)pyridin-2-yl)propanamide]	< 0.1		
Cc1cc(OC2CCN(C)CC2)c2oc3cc(Oc4ccc(CCC(=O)NC5CCCC5)nc4)ccc3c(=O)c2c1 [Example 71, N-Cyclopentyl-3-[5-({7-methyl-5-[(1-methyl-4-piperidinyl)oxy]-9-oxo-9H-xanthen-3-yl}oxy)-2-pyridinyl]propanamide]		1 to 10	
Cc1cc(OC[C@@H]2CCCN2C)c2oc3cc(Oc4ccc(CCC(=O)NC5CCCC5)nc4)ccc3c(=O)c2c1 [Example 73, (S)—N-Cyclopentyl-3-(5-((7-methyl-5-((1-methylpyrrolidin-2-yl)methoxy)-9-oxo-9H-xanthen-3-yl)oxy)pyridin-2-yl)propanamide]	< 0.1		
Cc1cc(OCC2CCCCN2C)c2oc3cc(Oc4ccc(CCC(=O)NC5CCCC5)nc4)ccc3c(=O)c2c1 (stereo not shown) [Example 74, N-Cyclopentyl-3-(5-((7-methyl-5-((1-methylpiperidin-2-yl)methoxy)-9-oxo-9H-xanthen-3-yl)oxy)pyridin-2-yl)propanamide]	< 0.1		
Cc1cc(OCC2CCCN(C)C2)c2oc3cc(Oc4ccc(CCC(=O)NC5CCCC5)nc4)ccc3c(=O)c2c1 (stereo not shown) [Example 76, N-Cyclopentyl-3-(5-((7-methyl-5-((1-methylpiperidin-3-yl)methoxy)-9-oxo-9H-xanthen-3-yl)oxy)pyridin-2-yl)propanamide]	< 0.1		
FC(F)(F)c1ccc(CNc2ccc(Cc3c[nH]c4ncc(Cl)cc34)cn2)cn1 [PLX3397, Pexidartinib, reference compound]			reduce the number of cells of myeloid lineage

Second part, led by results:

IC50 (CSF-1R (FMS)) [µM]	IC50 (KDR (VEGFR2)) [µM]	SMILES	number of cells of myeloid lineage in the treated mice [1]
	1 to 10	Cc1cc(OCCN(C)C)c2oc3cc(Oc4cccc(C(=O)Nc5ccccc5)c4)ccc3c(=O)c2c1 [Example 5, 3-((5-(2-(Dimethylamino)ethoxy)-7-methyl-9-oxo-9H-xanthen-3-yl)oxy)-N-phenyl-benzamide]	
0.1 to 1	> 10	COc1ccc(Oc2ccc3c(=O)c4cc(C)cc(OCCN(C)C)c4oc3c2)cn1 [Example 8, 4-(2-(Dimethylamino)ethoxy)-6-((6-methoxypyridin-3-yl)oxy)-2-methyl-9H-xanthen-9-one]	
< 0.1	> 10	COc1cc(Oc2ccc3c(=O)c4cc(C)cc(OCCN(C)C)c4oc3c2)cnc1OC [Example 9, 6-((5,6-Dimethoxypyridin-3-yl)oxy)-4-(2-(dimethylamino)ethoxy)-2-methyl-9H-xanthen-9-one]	
< 0.1	> 10	Cc1cc(OCCN(C)C)c2oc3cc(Oc4ccc(NCc5ccc(OC(F)(F)F)cc5)nc4)ccc3c(=O)c2c1 [Example 15, 4-(2-(Dimethylamino)ethoxy)-2-methyl-6-((6-((4-(trifluoromethoxy)benzyl)amino)-pyridin-3-yl)oxy)-9H-xanthen-9-one]	
0.1 to 1	> 10	Cc1cc(OCCN(C)C)c2oc3cc(Oc4ccc(N)nc4)ccc3c(=O)c2c1 [Example 17, 6-((6-Aminopyridin-3-yl)oxy)-4-(2-(dimethylamino)ethoxy)-2-methyl-9H-xanthen-9-one]	
< 0.1	> 10	CNCCOc1cc(C)cc2c(=O)c3ccc(Oc4ccc(CCC(=O)NC5CCCC5)nc4)cc3oc12 [Example 29, N-Cyclopentyl-3-(5-((7-methyl-5-(2-(methylamino)ethoxy)-9-oxo-9H-xanthen-3-yl)oxy)pyridin-2-yl)propanamide]	
0.1 to 1	1 to 10	Cc1cc(OCCCN(C)C)c2oc3cc(Oc4ccccc4)ccc3c(=O)c2c1 [Example 30, 4-[3-(Dimethylamino)propoxy]-2-methyl-6-phenoxy-9H-xanthen-9-one]	
< 0.1	> 10	Cc1cc(OCCN2C[C@@H](C)N(C)[C@@H](C)C2)c2oc3cc(Oc4ccc(CCC(=O)NC5CCCC5)nc4)ccc3c(=O)c2c1 [Example 62, N-Cyclopentyl-3-(5-((7-methyl-9-oxo-5-(2-((3S,5R)-3,4,5-trimethylpiperazin-1-yl)ethoxy)-9H-xanthen-3-yl)oxy)pyridin-2-yl)propanamide]	
< 0.1		Cc1cc(OCCCN2[C@H](C)CCC[C@@H]2C)c2oc3cc(Oc4ccc(CCC(=O)NC5CCCC5)nc4)ccc3c(=O)c2c1 [Example 64, N-Cyclopentyl-3-(5-((5-(3-((2R,6S)-2,6-dimethylpiperidin-1-yl)propoxy)-7-methyl-9-oxo-9H-xanthen-3-yl)oxy)pyridin-2-yl)propanamide]	
< 0.1		CCN1CCN(CCCOc2cc(C)cc3c(=O)c4ccc(Oc5ccc(CCC(=O)NC6CCCC6)nc5)cc4oc23)CC1 [Example 65, N-Cyclopentyl-3-(5-((5-(3-(4-ethylpiperazin-1-yl)propoxy)-7-methyl-9-oxo-9H-xanthen-3-yl)oxy)pyridin-2-yl)propanamide]	
< 0.1	1 to 10	Cc1cc(OCCCN2CCN(C(C)C)CC2)c2oc3cc(Oc4ccc(CCC(=O)NC5CCCC5)nc4)ccc3c(=O)c2c1 [Example 66, N-Cyclopentyl-3-(5-((5-(3-(4-isopropylpiperazin-1-yl)propoxy)-7-methyl-9-oxo-9H-xanthen-3-yl)oxy)pyridin-2-yl)propanamide]	
< 0.1		Cc1cc(OCCCN2C[C@@H](C)N(C)[C@@H](C)C2)c2oc3cc(Oc4ccc(CCC(=O)NC5CCCC5)nc4)ccc3c(=O)c2c1 [Example 68, N-Cyclopentyl-3-(5-((7-methyl-9-oxo-5-(3-((3S,5R)-3,4,5-trimethylpiperazin-1-yl)propoxy)-9H-xanthen-3-yl)oxy)pyridin-2-yl)propanamide]	
< 0.1		Cc1cc(OCCCN2CCOCC2)c2oc3cc(Oc4ccc(CCC(=O)NC5CCCC5)nc4)ccc3c(=O)c2c1 [Example 69, N-Cyclopentyl-3-[5-({7-methyl-5-[3-(4-morpholinyl)propoxy]-9-oxo-9H-xanthen-3-yl}oxy)-2-pyridinyl]propanamide]	
< 0.1		Cc1cc(OC[C@H]2CCCN2C)c2oc3cc(Oc4ccc(CCC(=O)NC5CCCC5)nc4)ccc3c(=O)c2c1 [Example 72, (R)—N-Cyclopentyl-3-(5-((7-methyl-5-((1-methylpyrrolidin-2-yl)methoxy)-9-oxo-9H-xanthen-3-yl)oxy)pyridin-2-yl)propanamide]	
< 0.1		Cc1cc(OCCC2CCCN2C)c2oc3cc(Oc4ccc(CCC(=O)NC5CCCC5)nc4)ccc3c(=O)c2c1 (stereo not shown) [Example 75, N-Cyclopentyl-3-(5-((7-methyl-5-(2-(1-methylpyrrolidin-2-yl)ethoxy)-9-oxo-9H-xanthen-3-yl)oxy)pyridin-2-yl)propanamide]	

Reference: patent US11028064B2, “Tricyclic heterocyclic derivatives and uses thereof” (AUCKLAND UNISERVICES LIMITED, priority 2016, dated 2021)
